For assay [1], the system named is ATF4 expression, HEK293T cells carrying the ATF4 luciferase reporter. Nature of the assay: ATF4 expression inhibition assay (ATF4 luciferase reporter). The settings on record: Homo sapiens, HEK-293T, 100 nM thapsigargin, 3 hours. In kind it is cell-based. On the procedure:
The ATF4 reporter was prepared by fusing the human full length 5′UTR of ATF4 (NCBI Accession No. BC022088.2) upstream of the firefly luciferase coding sequence lacking the initiator methionine. The fused sequence was cloned into pLenti-EFla-C-Myc-DDK-IRES-Puro cloning vector (Origen #PS100085) using standard methods. Virus production was carried out by using Lenti-X™ Packaging Single Shots Protocol (Clonetech #631276). Viral particles were used to transduce HEK293T cells (ATCC #CRL-3216, ATCC Manassas, Va.), which were subsequently selected with puromycin to generate stable cell line. Cells were maintained at 37° C. and 5% CO2 in DMEM-F12 (Hyclone #SH30023.02) supplemented with 10% heat-inactivated fetal bovine serum (Gibco #16000-044), 2 mM L-glutamine (Gibco #25030-081), 100 U/ml penicillin, and 100 μg/ml streptomycin (Gibco #^15140-122).
HEK293T cells carrying the ATF4 luciferase reporter were plated on 96-well plates (Nunc) at 10,000 cells per well. Cells were treated two days after seeding with 100 nM thapsigargin (Tg) (Sigma-Aldrich #T9033) in the presence of different concentrations of selected compounds ranging from 1 nM to 10 μM. Cells without treatment or cells treated with Tg alone were used as controls. Assay plates containing cells were incubated for 3 hours at 37° C.
Luciferase reactions were performed using Luciferase Assay System (Promega #E1501) as specified by the manufacturer. Luminescence was read with an integration time of 1 s and a gain of 110 using a Cytation-5 multi-mode microplate reader (BioTek). Relative luminescence units were normalized to Tg treatment (0% inhibition) and untreated cells (100% inhibition) and the percentage of ATF4 inhibition was calculated.
Accordingly, inhibition of ATF4 expression as a result of the test compound indicates suppression of the ISR pathway.

Assay [2] has as its system Chinese hamster ovary (CHO) cells. Nature of the assay: Protein synthesis assay (puromycin incorporation, western blot). In kind it is cell-based. Conditions: 2 hours, media alone = 100%; for activity at 1 µM: Cricetulus griseus, unstressed CHO cells (without Tg), 1 μM test compound, read-out: % Protein synthesis relative to untreated (1 μM test compound); for % Recovery of protein synthesis (1 μM test compound): stressed CHO cells, 300 nM Tg plus 1 μM test compound, Tg alone = 0%. The procedure:
Chinese hamster ovary (CHO) cells were maintained at 37° C. and 5% CO2 in Dulbecco's Modified Eagle's Media (DMEM) supplemented with 10% fetal bovine serum, 2 mM L-glutamine, 100 U/ml penicillin, and 100 μg/ml streptomycin. After reaching 80% of confluence, cells were detached and seeded on 6 well plates in complete media, allowed to recover overnight and treated for 2 hours with 1 μM of the test compound (to assess protein synthesis levels in unstressed condition), or for 2 hours with 300 nM Tg in the presence of 1 μM of the test compound (to assess the recovery of protein synthesis in a stressed condition). Cells with Tg alone were used as controls.
After the 2 hours treatments, media were replaced by adding 10 μg/ml puromycin (Sigma Aldrich #P8833) in complete media for 30 min. Media were removed and cells were lysed with SDS-PAGE lysis buffer. Lysates were transferred to 1.5 ml tubes and sonicated for 3 min and total protein amount were quantified using BCA Protein Assay Kit (Pierce). Equal amount of protein (30 μg) was loaded on SDS-PAGE gels. Proteins were transferred onto […] PVDF membranes (BioRad) and probed with primary antibodies diluted in Tris-buffered saline supplemented with 0.1% Tween 20 (Merck #S6996184 505) and 3% bovine serum albumin (Rockland #BSA-50).
Puromycin (12D10) (Merck #MABE343) and j-actin (Sigma Aldrich #A5441) antibodies were used as primary antibody. A HRP-conjugated secondary antibody (Rockland) was employed to detect immune-reactive bands using enhanced chemiluminescence (ECL Western Blotting Substrate, Pierce). Quantification of protein bands was done by densitometry using ImageJ software.
Percent increase of protein synthesis in unstressed cells (without Tg treatment) in the presence of media alone or certain test compounds is shown in Table 3. The percentage levels were normalized to the media alone condition, which correspond to 100% protein synthesis.
Percent recovery of protein synthesis in stressed cells (with Tg treatment) due to the test compounds at 1 μM is also shown in Table 3. The levels were normalized to the media alone and Tg alone conditions, which correspond to 100% and 0% respectively.
(In western blotting, separated proteins are transferred to a membrane and probed.)

Usually IC50 stands for the midpoint of a concentration-inhibition curve. Low values mean greater potency in that assay, high ones weaker potency in that assay.

`O=C(COc1ccc(Cl)cc1)N[C@H]1CC[C@H](NC(=O)C2COc3ccc(Cl)cc3N2)CC1` (stereo partly drawn) [Compound 34, trans-6-chloro-N-(4-(2-(4-chlorophenoxy)acetamido)cyclohexyl)-3,4-dihydro-2H-benzo[b][1,4]oxazine-3-carboxamide]: the IC50 in assay [1] was over 1000 nM. Besides, in assay [2], the activity at 1 µM was 137% and the “% Recovery of protein synthesis (1 μM test compound)” value (shortened to “% Recovery of protein synthesis”) amounted to 105.2%.
Turning to `O=C(COc1ccc(Cl)cc1)N[C@H]1CC[C@H](CNC2CCc3cc(Cl)ccc3C2)CC1` (stereo partly drawn) [Compound 33, trans-N-(4-(((6-chloro-1,2,3,4-tetrahydronaphthalen-2-yl)amino)methyl)cyclohexyl)-2-(4-chlorophenoxy)acetamide], the IC50 in assay [1] was over 1000 nM. Moreover, the activity at 1 µM in assay [2] is 599%.
`O=C(COc1ccc(Cl)c(F)c1)NC[C@H]1CC[C@H](NC(=O)c2cc3cc(Cl)ccc3o2)CC1` [Compound 13, trans-5-chloro-N-(4-((2-(4-chloro-3-fluorophenoxy)acetamido)methyl)cyclohexyl)benzofuran-2-carboxamide]: in assay [1], the IC50 is 19 nM. Besides, in assay [2], the activity at 1 µM was 129% and the “% Recovery of protein synthesis” value turned out to be 120.4%.
In the case of `CCN1C[C@@H](C(=O)N[C@H]2CC[C@H](NC(=O)COc3ccc(Cl)cc3)CC2)Oc2ccc(Cl)cc21` [Compound 89, trans-(S)-6-chloro-N-(4-(2-(4-chlorophenoxy)acetamido)cyclohexyl)-4-ethyl-3,4-dihydro-2H-benzo[b] [1,4]oxazine-2-carboxamide], the IC50 in assay [1] was under 1000 nM. In assay [2], the activity at 1 µM is 134% and the “% Recovery of protein synthesis” value came to 21.5%.
For `O=C(COc1ccc(Cl)c(F)c1)N[C@H]1CC[C@H](CNC(=O)c2ccc(OC(F)(F)F)cc2)CC1` [Compound 18, trans-N-((4-(2-(4-chloro-3-fluorophenoxy)acetamido)cyclohexyl)methyl)-4-(trifluoromethoxy)benzamide] the same measures were 5.63 nM, 105% and 60.0%.
For `O=C(NCC1CCN(CC(O)COc2ccc(Cl)c(F)c2)CC1)c1ccc2cc(Cl)ccc2n1` (stereo not drawn) [Compound 7, 6-chloro-N-((1-(3-(4-chloro-3-fluorophenoxy)-2-hydroxypropyl)piperidin-4-yl)methyl)quinoline-2-carboxamide] the same measures were over 1000 nM, 114% and 131.9%.
Turning to `CCN1C[C@H](C(=O)N[C@H]2CC[C@H](NC(=O)COc3ccc(Cl)cc3)CC2)Oc2ccc(Cl)cc21` [Compound 88, trans-(R)-6-chloro-N-(4-(2-(4-chlorophenoxy)acetamido)cyclohexyl)-4-ethyl-3,4-dihydro-2H-benzo[b][1,4]oxazine-2-carboxamide], the IC50 in assay [1] is over 1000 nM. Also, in assay [2], the activity at 1 µM amounted to 105% and the “% Recovery of protein synthesis” value is on record as 28.6%.
On the same counts, the results for `O=C(COc1ccc(Cl)c(F)c1)NN1CCC(CNC(=O)c2cc3cc(Cl)ccc3o2)CC1` [Compound 95, 5-chloro-N-((1-(2-(4-chloro-3-fluorophenoxy)acetamido)piperidin-4-yl)methyl)benzofuran-2-carboxamide] are 2.9 nM, 191% and 133.4%.
On the same counts, the results for `O=C(COc1ccc(Cl)cc1)NN1CCC(CNC(=O)Nc2ccc(Cl)cc2)CC1` [Compound 99, 2-(4-chlorophenoxy)-N-(4-((3-(4-chlorophenyl)ureido)methyl)piperidin-1-yl)acetamide] are 14.5 nM, -42% and 122.3%.
For `O=C(COc1ccc(Cl)cc1)N[C@H]1CC[C@H](CNC(=O)c2cc3cc(Cl)ccc3o2)CC1` [Compound 15, trans-5-chloro-N-((4-(2-(4-chlorophenoxy)acetamido)cyclohexyl)methyl)benzofuran-2-carboxamide] the same measures were 1.45 nM, 204% and 176.3%.
Molecule `O=C(NN1CCC(CNC(=O)c2cc3cc(Cl)ccc3o2)CC1)c1ccc2cc(Cl)ccc2n1` [Compound 96, 6-chloro-N-(4-((5-chlorobenzofuran-2-carboxamido)methyl)piperidin-1-yl)quinoline-2-carboxamide] came in with an IC50 in assay [1] of 1.05 nM. Moreover, in assay [2], the activity at 1 µM is 258%.
In assay [1], `O=C(NC[C@H]1CC[C@H](NC(=O)COc2ccc(Cl)c(F)c2)CC1)Nc1ccc(Cl)cc1` [Compound 28, trans-2-(4-chloro-3-fluorophenoxy)-N-(4-((3-(4-chlorophenyl)ureido)methyl)cyclohexyl)acetamide] gave an IC50 of 3.1 nM. Besides, in assay [2], the activity at 1 µM came out at 68% and the “% Recovery of protein synthesis” value is recorded as 28.6%.
For `O=C(COc1ccc(Cl)c(F)c1)N[C@H]1CC[C@H](CNC(=O)c2ccc(C(F)(F)F)cn2)CC1` [Compound 20, trans-N-((4-(2-(4-chloro-3-fluorophenoxy)acetamido)cyclohexyl)methyl)-5-(trifluoromethyl)picolinamide] the same measures were 2.43 nM, 75.6% and 34.8%.
On the same counts, the results for `O=C(COc1ccc(Cl)c(F)c1)NC[C@H]1CC[C@H](NC(=O)COc2ccc(Cl)c(F)c2)CC1` [Compound 9, trans-2-(4-chloro-3-fluorophenoxy)-N-((4-(2-(4-chloro-3-fluorophenoxy)acetamido)cyclohexyl)methyl)acetamide] are 72.4 nM, 119% and 26.1%.
For `O=C(COc1ccc(Cl)c(F)c1)N[C@H]1CC[C@H](CNC(=O)c2ccc(Cl)cn2)CC1` [Compound 19, trans-5-chloro-N-((4-(2-(4-chloro-3-fluorophenoxy)acetamido)cyclohexyl)methyl)picolinamide] the same measures were 20.1 nM, 131% and 32.5%.
The molecule `O=C(NC[C@H]1CC[C@H](NC(=O)COc2ccc(Cl)cc2)CC1)Nc1ccc(Cl)cc1` [Compound 93, trans-2-(4-chlorophenoxy)-N-(4-((3-(4-chlorophenyl)ureido)methyl)cyclohexyl)acetamide] returned an IC50 in assay [1] of 3.88 nM. In assay [2], the activity at 1 µM was 88% and the “% Recovery of protein synthesis” value was determined as 69.1%.
Molecule `O=C(COc1ccc(Cl)c(F)c1)NC1CC2CCC1CN2CC(O)COc1ccc(Cl)c(F)c1` (stereo not drawn) [Compound 2, 2-(4-chloro-3-fluorophenoxy)-N-(2-(3-(4-chloro-3-fluorophenoxy)-2-hydroxypropyl)-2-azabicyclo[2.2.2]octan-5-yl)acetamide] showed an IC50 in assay [1] of under 1000 nM. In assay [2], the activity at 1 µM worked out at 98.3% and the “% Recovery of protein synthesis” value is 252.0%.
As for `COc1cc(Cl)ccc1OCC(=O)N[C@H]1CC[C@H](NC(=O)COc2ccc(Cl)cc2)CC1` [Compound 90, trans-2-(4-chloro-2-methoxyphenoxy)-N-(4-(2-(4-chlorophenoxy)acetamido)cyclohexyl)acetamide], inhibition in assay [1] was half-maximal at 61.5 nM (IC50). Moreover, in assay [2], the activity at 1 µM was found to be 116%.

These data come from patent publication US20210317102A1, “INHIBITORS OF INTEGRATED STRESS RESPONSE PATHWAY” (Praxis Biotech LLC, priority 2019, published 2021).
